Test results from PMC3914891, “Pentacyclic Nitrofurans with In Vivo Efficacy and Activity against Nonreplicating Mycobacterium tuberculosis” (PLoS ONE, 2014).
Values after ≈ are worked out from the molar mass of the structure shown. Read-outs that look alike come from different tables or passages of the source. Marks after values point to notes of the source that are not given here.

How the values were obtained:
Vero cells [1] = experiment: In vitro cytotoxicity against Vero cells
[2] = mouse plasma; ref footnote g, values reported in reference (number not given); cited from earlier work
M. tuberculosis = experiment: MIC determination, microbroth dilution, M. tuberculosis; assay type: cell-based, Mycobacterium tuberculosis
Vero cells [3] = details: cited from earlier work
physchem = details: pH 7.4, aqueous buffer
[4] = test system: Staphylococcus aureus (NRS70); experiment: MIC, spectrum of activity: MRSA; assay type: cell-based; details: read-out: Minimum Inhibitory Concentration, MRSA
[5] = test system: Burkholderia cepacia (ATCC 25416); experiment: MIC, spectrum of activity: B.c.; assay type: cell-based; details: ATCC25416, read-out: Minimum Inhibitory Concentration, B.c.
[6] = In vitro cytotoxicity against Vero cells; details: African green monkey, Vero cells (kidney epithelial cells, ATCC CCL-81)
[7] = test system: Bacillus subtilis (ATCC 23857); experiment: MIC, spectrum of activity: B.s.; assay type: cell-based; details: ATCC23857, read-out: Minimum Inhibitory Concentration, B.s.
in vitro [8] = details: mouse, plasma
[9] = test system: Stenotrophomonas maltophilia (ATCC 13637); experiment: MIC, spectrum of activity: S.m.; assay type: cell-based; details: ATCC13637, read-out: Minimum Inhibitory Concentration, S.m.
[10] = test system: Enterococcus faecalis (ATCC 33186); experiment: MIC, spectrum of activity: E.f.; assay type: cell-based; details: ATCC33186, read-out: Minimum Inhibitory Concentration, E.f.
[11] = test system: Bacillus anthracis sterne 34F2; experiment: microbe, parasite or virus in culture; assay type: cell-based; details: STERNE34F2, read-out: Minimum Inhibitory Concentration, B.a.
[12] = male, Sprague-Dawley, rat, in vivo
[13] = test system: Escherichia coli (ATCC 700926); experiment: MIC, spectrum of activity: E.c.; assay type: cell-based; details: ATCC700926, read-out: Minimum Inhibitory Concentration, E.c.
in vivo = details: male, Sprague-Dawley, rat
in vitro [14] = details: mouse, microsomes
[15] = test system: Streptococcus pyogenes (ATCC 700294); experiment: MIC, spectrum of activity: S.py; assay type: cell-based; details: ATCC700294, read-out: Minimum Inhibitory Concentration, S. Py.
[16] = rats; IV 10 mg/kg and oral 100 mg/kg
[17] = test system: Streptococcus pneumoniae (R6); experiment: MIC, spectrum of activity: S.pn; assay type: cell-based; details: read-out: Minimum Inhibitory Concentration, S. Pn.
E. coli K12 ∆tolC = assay type: cell-based; details: E. coli K12 ∆tolC (efflux pump deficient)
[18] = test system: Staphylococcus aureus (ATCC 29213); experiment: MIC, spectrum of activity: S.a.; assay type: cell-based; details: ATCC29213, read-out: Minimum Inhibitory Concentration, S.a
[19] = test system: M. bovis strain BCG Pasteur; assay type: cell-based
[20] = test system: M. tuberculosis strain H37Rv (mid-log and nutrient-starved); experiment: Nutrient starvation model of nonreplicating persisters; assay type: cell-based, Mycobacterium tuberculosis
[21] = test system: hypoxic M. tuberculosis strain H37Rv; experiment: NRP bacteria under hypoxia (rapid anaerobic dormancy model); assay type: cell-based, Mycobacterium tuberculosis
M. tuberculosis Erdman = details: mouse, in vivo, po, 25 mg/kg
[22] = test system: M. tuberculosis strain H37Rv; experiment: Checkerboard synergy assay; assay type: cell-based, Mycobacterium tuberculosis; details: for MIC: Mycobacterium tuberculosis, 168 h, read-out: MIC Alone
M. fortuitum (ATCC 6841) = experiment: MIC, non-tuberculosis mycobacteria: M. fortuitum; assay type: cell-based; details: Mycolicibacterium fortuitum, ATCC6841, 72 h; broth dilution, visual inspection, 3 days; read-out: Minimum Inhibitory Concentration, M. fortuitum
M. avium (ATCC 25291) = experiment: MIC, non-tuberculosis mycobacteria: M. avium; assay type: cell-based; details: Mycobacterium avium, ATCC25291, 168 h; broth dilution, visual inspection, 7 days; read-out: Minimum Inhibitory Concentration, M. avium
M. kansasii (ATCC 12478) = experiment: MIC, non-tuberculosis mycobacteria: M. kansasii; assay type: cell-based; details: Mycobacterium kansasii, ATCC12478, 168 h; broth dilution, visual inspection, 7 days; read-out: Minimum Inhibitory Concentration, M. kansasii
[23] = test system: M. abscessus (ATCC 19977); experiment: MIC, non-tuberculosis mycobacteria: M. abscessus; assay type: cell-based; details: Mycobacteroides abscessus, ATCC19977, 72 h, read-out: Minimum Inhibitory Concentration, M. abscessus
M. ulcerans (ATCC 35840) = experiment: MIC by agar proportion method: M. ulcerans; assay type: cell-based; details: Mycobacterium ulcerans, ATCC35840, 672 h, read-out: Minimum Inhibitory Concentration, M. ulcerans
M. tuberculosis H37Rv = experiment: Minimum bactericidal concentration determination; assay type: cell-based, Mycobacterium tuberculosis
H37Rv-wt = experiment: microbe, parasite or virus in culture; assay type: cell-based, M. tuberculosis; details: Mycobacterium tuberculosis
[24] = Mycobacterium tuberculosis, 168 h; read-out: M. tb. MIC

Structure (SMILES)	Selective Index (Cytox/MIC) (Vero cells [1])	solubility (physchem)	MIC [4]	MIC [5]	IC50 [6]	MIC [7]	fraction unbound (in vitro [8])	MIC [9]	MIC [10]	MIC [11]	MIC (M. tuberculosis; [24])	MIC [13]	half-life (in vitro [14])	MIC [15]	MIC [17]	Minimum Inhibitory Concentration, E.c. ΔtolC (E. coli K12 ∆tolC)	MIC [18]	% Growth vs. Control [21]	FICI with 9a [22]	MIC in presence of 9a [22]	other results
O=[N+]([O-])c1ccc(C2=NOC(c3ccc(N4CCOCC4)cc3)C2)o1 (stereo not drawn) [Compound 2]	483	–	–	–	–	–	–	–	–	–	–	–	–	–	–	–	–	–	–	–	Solubility (pH 7.4): 9.9 µg/mL; Plasma Protein binding [2]: 96.4 ^g %; MIC (M. tuberculosis; Mycobacterium tuberculosis, 168 h, read-out: M. tb. MIC): 0.006 µg/mL; Cytotoxicity IC50 (Vero cells [3]): 2.9 ^g µg/mL
O=[N+]([O-])c1ccc(C2=NOC(c3ccc(N4CCC(Oc5ccc(OC(F)(F)F)cc5)CC4)c(F)c3)C2)o1 (stereo not drawn) [Compound 9c, 5-(3-Fluoro-4-(4-(4-(trifluoromethoxy)phenoxy)piperidin-1-yl)phenyl)-3-(5-nitrofuran-2-yl)-4,5-dihydroisoxazole]	21400	1.9 µg/mL (≈ 3.55 µM)	> 200 µg/mL	> 200 µg/mL	21.4 µg/mL (≈ 40 µM)	200 µg/mL (≈ 374 µM)	0.024	> 200 µg/mL	> 200 µg/mL	12.5 µg/mL (≈ 23.3 µM)	0.001 µg/mL	> 200 µg/mL	7.04 h	200 µg/mL (≈ 374 µM)	> 200 µg/mL	>200 µg/mL	> 200 µg/mL	–	–	–	fe (fraction excreted unchanged in urine) ([12]; iv, 10 mg/kg): 0.02 (0.00) %; Cmin,24 h ([12]; po, 100 mg/kg): 0.02 (0.02) mg/L; Vd (in vivo; iv, 10 mg/kg): 1.69 L/kg; clearance (in vivo; iv, 10 mg/kg): 6.83 mL/min/kg; half-life (in vivo; iv, 10 mg/kg): 5.6 h; AUC(0-inf) (in vivo; po, 100 mg/kg): 1610 ng·h/mL; Cmax (in vivo; po, 100 mg/kg): 150 ng/mL; bioavailability (in vivo; po, 100 mg/kg): 0.83%; Toxicity by intravenous and oral dosing [16]: Central nervous system toxicity (seizures)
NNC(=O)c1ccncc1 [Isoniazid]	–	–	–	–	–	–	–	–	–	–	–	–	–	–	–	–	–	29.1–49.1%	0.52–2.00	0.01 to 0.02 µg/mL	PAE [19]: 71.8 h; fold less active against nutrient starved bacteria than against actively growing culture [20]: 7 fold; reduction in viability (killing) of actively growing culture [20]: > 95%; Log10CFU (SEM), lungs (M. tuberculosis Erdman): 4.60 (0.21) Log10CFU; Log10CFU (SEM), spleen (M. tuberculosis Erdman): 2.61 (0.09) Log10CFU; Type of Interaction [22]: Indifference (key: Synergy: synergy (FICI ≤0.5); Indifference: indifference (FICI >0.5–4.0); Antagonism: antagonism (FICI >4.0)); MIC ([22]; H37RV): 0.02 µg/mL
O=[N+]([O-])c1cn2c(n1)OC[C@@H](OCc1ccc(OC(F)(F)F)cc1)C2 [PA-824]	178	8.5 µg/mL (≈ 23.7 µM)	> 200 µg/mL	> 200 µg/mL	69.4 µg/mL (≈ 193 µM)	200 µg/mL (≈ 557 µM)	0.071	> 200 µg/mL	> 200 µg/mL	> 200 µg/mL	0.39 µg/mL	> 200 µg/mL	8.12 h	> 200 µg/mL	> 200 µg/mL	>200 µg/mL	> 200 µg/mL	<0.1%	–	0.01 to 0.02 µg/mL	MIC (M. fortuitum (ATCC 6841)): > 200 µg/mL; MIC (M. avium (ATCC 25291)): > 200 µg/mL; MIC (M. kansasii (ATCC 12478)): 3.1 to 12.5 µg/mL (≈ 8.63 to 34.8 µM); killing of hypoxic bacilli ([21]; 10 µg/mL, NRP-2 bacilli): > 99.9%; MIC (M. tuberculosis; Mycobacterium tuberculosis; M. tuberculosis; […]; read-out: MIC): > 1 µM; MIC [23]: > 200 µg/mL; MIC (M. ulcerans (ATCC 35840); agar proportion method, 4 weeks): 3.1 to 25 µg/mL (≈ 8.63 to 69.6 µM); MBC (M. tuberculosis H37Rv): >6; Classification (M. tuberculosis H37Rv; cidal or static from MBC versus MIC): Static (static (MBC/MIC >4)); MIC (H37Rv-wt): 0.1 µg/mL (≈ 0.278 µM); MIC ([22]; checkerboard, H37Rv, 7 days): 0.2 to 0.8 µg/mL; fold decrease of MIC in the presence of 9a ([22]; checkerboard, H37Rv): ~10 fold; Type of Interaction ([22]; interaction of the treatment with 9a): Synergy (synergy (FICI ≤0.5))
CO[C@H]1/C=C/O[C@@]2(C)Oc3c(C)c(O)c4c(O)c(c(/C=N/N5CCN(C)CC5)c(O)c4c3C2=O)NC(=O)/C(C)=C\C=C\[C@H](C)[C@H](O)[C@@H](C)[C@@H](O)[C@@H](C)[C@H](OC(C)=O)[C@@H]1C [Rifampin]	–	–	–	–	–	–	–	–	–	–	–	–	–	–	–	–	–	<0.1%	0.38	0.003 µg/mL	MIC (M. fortuitum (ATCC 6841)): 1.56 µg/mL (≈ 1.9 µM); MIC (M. avium (ATCC 25291)): 6.3 µg/mL (≈ 7.66 µM); MIC (M. kansasii (ATCC 12478)): 0.39 µg/mL (≈ 0.474 µM); MIC ([23]; broth dilution, visual inspection, 3 days, range of at least two independent experiments): 50 µg/mL (≈ 60.8 µM); MIC (M. ulcerans (ATCC 35840)): 0.1 to 0.4 µg/mL (≈ 0.122 to 0.486 µM); Type of Interaction [22]: Synergy (key: Synergy: synergy (FICI ≤0.5); Indifference: indifference (FICI >0.5–4.0); Antagonism: antagonism (FICI >4.0)); fold decrease of MIC in the presence of 9a [22]: ~10 fold; MIC ([22]; H37RV): 0.02 to 0.05 µg/mL
